We go through 37 molecules from PubChem BioAssay AID504394 (Southern Research Specialized Biocontainment Screening …, 2011).

Molecules are shown by their SMILES. Active and inactive are the calls of the source. No rule for the calls is given here. Some results are limits rather than exact numbers.

The test has as its system host cell cytotoxicity, % cell control, 2% serum. Description: viability of cells used for CXCR4-tropic fusion test – fusion assay cells, 2% serum, TC50, cytotoxicity control for HIV-1 antiviral lead project, dose response (AID 504394).
For the molecule `Nc1sc2ccccc2[n+]1Cc1ccc(C(=O)O)cc1`, the TC50 is > 100 µM (inactive).
With `CCOc1ccc(-n2cccc2/C=C2/C(=N)N3C(=NC2=O)SN=C3S(C)(=O)=O)cc1` the figure was 84.7 µM; with `Cc1c2c(=O)n(-c3nc4ccccc4s3)nc-2cc(O)n1C1CC1`, 83.9 µM; with `COc1cccc(C2C(C(=O)Nc3ccccc3)=C(C)N=c3sc(=Cc4ccc(OCC(=O)O)cc4)c(=O)n32)c1` (configuration not stated), > 100 µM (inactive).
With `O=C(O)c1ccc(C[n+]2c(-c3ccc([N+](=O)[O-])cc3)csc2Nc2ccccc2)cc1` the figure was > 100 µM (inactive); with `COc1ccc(-c2ccc(/C=C3\SC(=S)N(CCCC(=O)O)C3=O)o2)cc1`, 68.3 µM.
Regarding `O=C(O)c1ccc(C[n+]2c(-c3ccccc3)csc2Nc2ccccc2)cc1`, the TC50 was > 100 µM (inactive).
To `CCOC(=O)C1=C(C)N=c2sc(=Cc3ccc(OCC(=O)O)cc3)c(=O)n2C1c1cc(OC)c(OC)c(OC)c1` (configuration not stated) belongs > 100 µM (inactive); to `COc1ccc(Cn2c(O)cc3nn(-c4nc5ccccc5s4)c(=O)c-3c2C)cc1`, 61.8 µM.
Regarding `O=C(O)c1ccc([C@@H]2Nc3ccc(S(=O)(=O)Nc4cccc5ccccc45)cc3[C@@H]3C=CC[C@@H]32)cc1`, the TC50 is > 100 µM (inactive).
Consider `CS(=O)(=O)C1=NSC2=NC(=O)/C(=C\c3cccn3-c3cccc(F)c3)C(=N)N21`, for which the TC50 is > 100 µM (inactive).
With `CCOC(=O)C1=C(C)N=c2sc(=Cc3ccc(OCC(=O)O)cc3)c(=O)n2C1c1ccccc1` (configuration not stated) the figure was > 100 µM (inactive); with `CCOC(=O)C1=C(C)N=c2sc(=Cc3ccc(OCC(=O)O)cc3)c(=O)n2C1c1ccccc1OC` (configuration not stated), > 100 µM (inactive); with `CCOC(=O)C1=C(c2ccccc2)N=c2s/c(=C\c3ccc(OCC(=O)O)cc3)c(=O)n2C1c1cccc(OC)c1` (configuration not stated), 80.4 µM.
Take `Cc1c2c(=O)n(-c3nc4ccccc4s3)nc-2cc(O)n1CCC(C)C`: the TC50 is 68.5 µM.
As for `CS(=O)(=O)C1=NSC2=NC(=O)/C(=C\c3cccn3-c3ccc(Br)cc3)C(=N)N21`, the TC50 was 46.2 µM.
Take `O=C(O)CCCN1C(=O)/C(=C\c2ccc(-c3cccc(Cl)c3)o2)SC1=S`: the TC50 was > 100 µM (inactive).
In the case of `Cc1c2c(=O)n(-c3nc4ccccc4s3)nc-2cc(O)n1Cc1ccncc1`, the TC50 is > 100 µM (inactive).
Regarding `O=C(O)CCCN1C(=O)/C(=C\c2ccc(-c3ccc(F)cc3)o2)SC1=S`, the TC50 was 38.1 µM.
With `Cc1c2c(=O)n(-c3nc4ccccc4s3)nc-2cc(O)n1CCc1ccc(O)cc1` the figure was 30 µM.
For the molecule `COc1cccc(-n2cccc2/C=C2/C(=N)N3C(=NC2=O)SN=C3S(C)(=O)=O)c1`, the TC50 is > 100 µM (inactive).
To `CCOC(=O)C1=C(C)N=c2s/c(=C\c3ccc(OCC(=O)O)cc3)c(=O)n2C1c1ccc(OC)c(OCC)c1` (configuration not stated) belongs 78.4 µM; to `O=C(O)CCCN1C(=O)/C(=C/c2ccc(-c3cccc(C(F)(F)F)c3)o2)SC1=S`, > 100 µM (inactive).
Turning to `Cc1c2c(=O)n(-c3nc4ccccc4s3)nc-2cc(O)n1Cc1ccc(F)cc1`, the TC50 is 59.9 µM.
To `Cc1ccc(-n2cccc2/C=C2/C(=N)N3C(=NC2=O)SN=C3S(C)(=O)=O)cc1` belongs 66.5 µM; to `CS(=O)(=O)C1=NSC2=NC(=O)/C(=C\c3cccn3-c3cccc(C(F)(F)F)c3)C(=N)N21`, > 100 µM (inactive); to `CC1=C(C(=O)OC(C)C)C(c2ccc(Cl)cc2)n2c(s/c(=C\c3ccc(OCC(=O)O)cc3)c2=O)=N1` (configuration not stated), > 100 µM (inactive).
Take `Cc1c2c(=O)n(-c3nc4ccccc4s3)nc-2cc(O)n1Cc1ccccc1Cl`: the TC50 is 38.1 µM.
Turning to `CS(=O)(=O)C1=NSC2=NC(=O)/C(=C\c3cccn3-c3ccc(F)cc3)C(=N)N21`, the TC50 is > 100 µM (inactive).
In the case of `Cc1c2c(=O)n(-c3nc4ccccc4s3)nc-2cc(O)n1CCc1cccs1`, the TC50 is > 100 µM (inactive).
To `Cc1c2c(=O)n(-c3nc4ccccc4s3)nc-2cc(O)n1Cc1cccnc1` belongs > 100 µM (inactive).
Regarding `CCOC(=O)C1=C(C)N=c2sc(=Cc3ccc(OCC(=O)O)cc3)c(=O)n2C1c1ccc(F)cc1` (configuration not stated), the TC50 is > 100 µM (inactive).
As to `Cc1ccc(-c2ccc(/C=C3\SC(=S)N(CCCC(=O)O)C3=O)o2)cc1`, the TC50 is > 100 µM (inactive).
To `CCOC(=O)C1=C(C)N=c2sc(=Cc3ccc(OCC(=O)O)cc3)c(=O)n2C1c1ccc(OC)cc1OC` (configuration not stated) belongs > 100 µM (inactive); to `COc1ccc(CCn2c(O)cc3nn(-c4nc5ccccc5s4)c(=O)c-3c2C)cc1`, 63.2 µM.
With `O=C(O)CCC(C(=O)O)N1C(=O)/C(=C\c2ccco2)SC1=S` (configuration not stated) the figure was > 100 µM (inactive).
As for `O=C(O)CCCN1C(=O)/C(=C/c2ccc(-c3ccc(Cl)c(Cl)c3)o2)SC1=S`, the TC50 is 12.4 µM.
